Read-outs that look alike come from different tables or passages of the source.
Assays:
human whole blood = test: In vitro P50 in whole blood after incubation with effector; type: cell-based; conditions: effector 60 mM
Protocol: (§1) As usual, pH's for the compound-solutions were adjusted to ˜7.0, osmolarities for both solutions were determined (325-373 mOsM) prior to effectors, and whole blood volumes at 1:1 ratios were incubated.

mouse whole blood = test: as above; type: cell-based; conditions: effector 60 mM
Protocol: as §1

pig whole blood = test: as above; type: cell-based; conditions: effector 60 mM
Protocol: as §1

whole blood = test: In vitro incubation of whole blood of three species, summary statements; type: cell-based, human, mouse and pig; conditions: whole blood of human, mouse and pig, 60 mM
Protocol: as §1

circulating RBC = test: P50 shift of circulating RBC after (intraperitoneal) injection in mice; conditions: maximum; for shift in the Hb-O2 dissociation curve: IP injection
baker's yeast = type: in vitro ADME; conditions: pH 4.6
Protocol: ITPP was dissolved in a buffer solution of a pH 4.6 and heated in the presence of baker's yeast for 12 h at 45° C. Non selective hydrolysis of approximately 25% occurred.

[1] = 1-octanol/water partition coefficient Kow; type: physicochemical; conditions: after equilibration at 30 mM
Protocol: Partition coefficients relate to the distribution of a solute between two immiscible liquid phases and are defined as the ratios of concentrations (or molar fraction) of the distributed solute.
The partition coefficients for our compounds, Kow=[ITPP]1-octanol/[ITPP]water, were measured after equilibration at a concentration of 30 mM, close to the typical concentration employed for biological evaluations.

[2] = Chemical hydrolysis of IHP-pyrophosphate at alkaline pH (31P-NMR); type: physicochemical
Protocol: Experiments designed to test IHP-pyrophosphate's resistance to chemical hydrolysis were conducted. ITPP N,N-dimethyl-cyclohexylammonium salt solutions were adjusted at pH 8.66, 10.20, 12.05 and 13.30. In order to avoid any damage to the NMR tubes due to the highly alkaline solutions, all samples were checked using ^31P-NMR at different time intervals against an external Ph3PO/DMSO solution. This method also avoided concentrating the samples and redissolving them in a deuterated solvent, which may have led to changes in the results. […] Observing this stability, we exposed the pH=13.30 sample to heat at 60° C. for 6 h. […] After 22 h at the same temperature, hydrolysis was only 19%. Facing this extreme stability to chemical hydrolysis we concentrated to dryness both solutions of pH 10.20 and 13.30 and dissolved them in D2O.

stripped hemoglobin = stripped hemoglobin (Homo sapiens, UniProt P68871); conditions: cited from earlier work
C57BL/6 mice = test: Tolerability of intraperitoneal injection in mice; type: in vivo; conditions: concentration of (up to) 120 mM
porcine hemoglobin = porcine hemoglobin (Sus scrofa, UniProt P02067); test: In vitro P50 of porcine free hemoglobin with effector; type: biochemical, pig; conditions: porcine free hemoglobin 2.5 mM, effector 2.5 mM, 1:1; for P50 mm Hg: control 20.4, 19.9
Protocol: (§2) Two further effectors, kf133 and kf137, were tested in vitro for P50 shifts with porcine hemoglobin and whole blood. The compounds were well soluble. As usual, pH was adjusted to ˜7.0 and effector solution (2.5 mM) and hemoglobin (2.5 mM) were mixed at a 1:1 ratio. Whole blood and the effector solution were mixed at iso-osmolarity at pH=7. P50 values were measured as described in the previous experiments.

porcine whole blood = test: In vitro P50 of porcine whole blood with effector (iso-osmolar); type: cell-based, pig; conditions: for P50 mm Hg: control 33.5
Protocol: as §2

[3] = Solubility of effector solutions; type: physicochemical; conditions: pH ~7.0
Protocol: as §2

[4] = Toxicity, general statements on the biological experiments; type: in vivo; conditions: general statement
[5] = porcine whole blood, iso-osmolarity, pH=7

porcine hemoglobin, sequence (P01965 whole entry partner): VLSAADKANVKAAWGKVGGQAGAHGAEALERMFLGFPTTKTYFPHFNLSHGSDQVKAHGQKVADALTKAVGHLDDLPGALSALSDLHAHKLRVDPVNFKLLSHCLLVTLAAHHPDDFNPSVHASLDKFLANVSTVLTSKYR
porcine hemoglobin, sequence (P02067 2-147 limits assumed): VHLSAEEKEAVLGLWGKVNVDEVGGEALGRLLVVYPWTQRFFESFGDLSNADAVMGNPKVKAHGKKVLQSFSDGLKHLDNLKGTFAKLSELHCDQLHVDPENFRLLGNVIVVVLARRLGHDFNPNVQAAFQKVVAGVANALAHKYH
stripped hemoglobin, sequence (P69905 2-142 partner limits assumed): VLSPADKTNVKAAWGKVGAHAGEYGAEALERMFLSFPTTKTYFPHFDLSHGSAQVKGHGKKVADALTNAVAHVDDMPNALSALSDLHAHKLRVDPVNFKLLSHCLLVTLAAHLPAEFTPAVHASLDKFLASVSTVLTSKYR
stripped hemoglobin, sequence (P68871 2-147 limits assumed): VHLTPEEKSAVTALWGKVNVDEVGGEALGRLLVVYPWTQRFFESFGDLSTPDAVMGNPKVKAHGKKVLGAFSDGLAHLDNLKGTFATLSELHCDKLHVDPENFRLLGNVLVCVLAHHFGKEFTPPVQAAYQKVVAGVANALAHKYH

IHP Cholesteryoxy Carbonyl Hepta N,N-Dimethyl Cyclohexyl Ammonium Salt [kf96]
P50 Increase % (human whole blood; 1:1): 27% | P50 mm Hg (human whole blood; 1:1, control 22.1): 28 mm Hg | P50 Increase % (mouse whole blood; 1:1): 20% | P50 mm Hg (mouse whole blood; 1:1, control 36.7): 43.9 mm Hg | P50 Increase % (pig whole blood; 1:1): 27% | P50 mm Hg (pig whole blood; 1:1, control 32.2): 41.1 mm Hg | right shift in the Hb-O2 dissociation curve, all blood samples (whole blood): 27% | shift in the Hb-O2 dissociation curve (circulating RBC; 30 mM): up to 17% | shift in the Hb-O2 dissociation curve (circulating RBC; 60 mM): up to 24%

O=P1(O)OC2C3OP(=O)(O)OP(=O)(O)OC3C3OP(=O)(O)OP(=O)(O)OC3C2OP(=O)(O)O1 (stereo not shown) [ITPP, inositol tripyrophosphate]
non selective enzymatic hydrolysis (baker's yeast): approximately 25%

NC1CCCCCCC1.NC1CCCCCCC1.NC1CCCCCCC1.NC1CCCCCCC1.NC1CCCCCCC1.NC1CCCCCCC1.O=P1(O)OP(=O)(O)O[C@H]2[C@H](O1)[C@@H]1OP(=O)(O)OP(=O)(O)O[C@@H]1[C@H]1OP(=O)(O)OP(=O)(O)O[C@H]21 [cyclooctylammonium ITPP salt]
Kow=[ITPP]1-octanol/[ITPP]water [1]: 0.462

IHP Cholesteryoxy Carbonyl Hepta N,N-Dimethyl Cyclohexyl Ammonium Salt [kf16.4]
right shift in the P50 (circulating RBC; ip, 6 animals): up to 18%

N,N-Dimethyl cyclohexyl ammonium Salt of Myo-inositol 1,6:2,3:4,5-Tripyrophosphate
hydrolysis (changes in 31P-NMR) ([2]; pH 8.66, 10.20, 12.05, after 3 days): No changes were observed | change after concentration to dryness ([2]; pH 10.20, redissolved in D2O): remained unchanged | hydrolysis ([2]; pH=13.30, 60° C. for 6 h): 13% | hydrolysis ([2]; pH=13.30, 60° C., after 22 h): 19% | hydrolysis ([2]; pH=13.3, after 3 days): 7% | change after concentration to dryness ([2]; pH=13.30, redissolved in D2O): completely converted to the IHP open form sodium salt

O=C(O)[C@@H](COP(=O)(O)O)OP(=O)(O)O [2,3-Diphosphoglycerate, 2,3-diphosph-D-glyceric acid]
O2 half-saturation pressure P(O2)(½) of stripped hemoglobin (stripped hemoglobin; pH 7.4, 25° C.): 12.0 mm Hg | O2 half-saturation pressure P(O2)(½) of stripped hemoglobin (stripped hemoglobin; pH 7.4, 37° C.): 23.7 mm Hg

Hexanoy-IHP NN-DMCHA salt [kf137]
tolerability in mice (C57BL/6 mice): well tolerated | P50 Increase % (porcine hemoglobin): 120% | P50 mm Hg (porcine hemoglobin): 45.1 mm Hg | lysis of the RBC (porcine whole blood; porcine whole blood in vitro): Noticeable lysis | P50 mm Hg (porcine whole blood; [5]): 51.5 mm Hg | solubility [3]: well soluble

NC1CCCCCC1.NC1CCCCCC1.NC1CCCCCC1.NC1CCCCCC1.NC1CCCCCC1.NC1CCCCCC1.O=P1(O)OC2C3OP(=O)(O)OP(=O)(O)OC3C3OP(=O)(O)OP(=O)(O)OC3C2OP(=O)(O)O1 (stereo not shown) [cycloheptylammonium ITPP salt]
Kow=[ITPP]1-octanol/[ITPP]water [1]: 0.0121

IHP monopyrophosphate hexasodium salt [kf133]
tolerability in mice (C57BL/6 mice): well tolerated | P50 Increase % (porcine hemoglobin): 143% | P50 mm Hg (porcine hemoglobin): 48.5 mm Hg | P50 Increase % (porcine whole blood; [5]): 14.5% | P50 mm Hg (porcine whole blood; [5]): 38.4 mm Hg | toxicity / tolerability [4]: non-toxic | solubility [3]: well soluble

Source: patent US7919481B2, “Inositol pyrophosphates, and methods of use thereof” (NormOxys, Inc., priority 2002, dated 2011)
